Test results as given in US5521159A, “Partially modified and retro-inverted tetrapeptides analogues of C-reactive protein fragments” (Italfarmaco S.p.A., priority 1992, dated 1996).

Experiments:
[1] = test system: Leishmania major; test: Effect on the leishmanicidal activity of murine peritoneal macrophage (3H-thymidine incorporation); assay type: cell-based; conditions: for 3H-thymidine incorporation by living parasites, cpm (counts per minute): 24 hours pre-incubation of macrophages, control 18,273; for % reduciton of infection: versus control
Procedure: Effect on the leishmanicidal activity of murine peritoneal macrophage
The peritoneal cells collected as described above were seeded in 96-well flat bottom plates (Nunc, Roskiled, DK) at a concentration of 10^5 /100 μl; and incubated per 24 hours at 37° C. At the end of the treatment, the cells not adherent to the well were separated and discharged, whereas the adherent cells were washed three time with culture medium and incubated for 24 hours with the compounds in question, then the cells were infected through a 24 hours incubation with promastigotes of Leishmania major (L. major, PVL49 strain supplied by Dr. Neal R. A., London School of Hygiene and Tropical Medicine, London, UK). At the end of the infection treatment each well was added with 100 μl of a 0.01% solution od sodium dodecylsulphate in RPMI 1640, and the plates were incubated for 30 minutes at 37° C. The Schneider's culture medium (Schneider Drosophila medium, Gibco Lab., Grand island, N.Y., USA) with 30% of FCS was added. Each well was added with 1 μCi of ^3 H-thymidine, and a 72 hours incubation was carried out at 37° C. The incorporation of radioactivity by the living parasites inside the peritoneal cells, which is correlated to the infection degree and consequently to the leishmanicidal activity of the cells, was measured by collecting the cells by means of a cell-harvester and measuring the radioactivity with liquid scintillation β-counter.

[2] = test system: BALB/C mice inoculated with LPS; test: In vivo protection against septic shock (LPS-inoculated mice); conditions: LPS 50 mg/kg intraperitoneally, checked for 8 days
Procedure: Evaluation of the in vivo protection against septic shock
BALB/C mice (6 mice/group) weighting between 20 and 25 g, were intraperitoneally inoculated with 50 mg/kg of LPS (lipopolysaccharide-Sigma). The groups, except for the control, were inoculated with increasing doses of one of the compounds of the invention dissolved in physiologic solution having a final volume of 0.5 ml, at time 0 (i.e. together with LPS) or 30 minutes after the LPS inoculation. The mice were checked for 8 days to determined the survival percentage. Compound of Example 1 yields a survival percentage of about 65% at doses of 6.2 ug/mouse and 0.62 ug/mouse, and its isomer B yields a survival percentage of about 80% at a dose of 6.25 ug/mouse and of 75% at a dose of 62.5 ug/mouse.

[3] = test system: murine splenocytes; test: Stimulation of in vitro IFN-.tau. production by murine splenocytes (ELISA); assay type: cell-based, BALB/C mice; conditions: for IFN-.tau. production, Stimulation index / IFN-.tau. production, U/ml: 24 hours; for IFN-.tau. production, Stimulation index: with respect to untreated cells; for IFN-.tau. production, U/ml: control 31 (Ex.1, Ex.2), 41 (Ex.3)
Procedure: Stimulation of in vitro IFN-.tau. production by murine splenocytes
The splenic cells were obtained from spleen of BALB/C mice as single cells suspension. The splenocytes thus obtained were resuspended in RPMI 1640 culture medium (Flow Lab., Hertz, UK) containing 5% of fetal calf serum (FCS) (HyClone, ST, Utah, USA) at a final concentrazione of 10^7 cells/ml, and incubated in 96-well plates for 24 hours at 37° C. in the presence of the tested compounds at the indicated concentration. At the end of the incubation the supernatant was collected, filtered by […] filter and freezed to -80° C. until the time of the test carried out by ELISA commercial kit (Genzyme, Boston, Mass., USA).

[4] = test system: murine peritoneal macrophages; test: Stimulation of IL-1 production by murine peritoneal macrophages (ELISA); assay type: cell-based, BALB/C mice; conditions: 96 hours; for IL-1 production, Stimulation index: with respect to control; for IL-1 production, U/ml: control 15
Text: Stimulation of IL-1 production by murine peritoneal macrophages
Murine peritoneal macrophages were obtained by inoculation of a solution of hydrolized starch (BDH Chemicals, Poole, Dorset, UK) into the peritoneal cavity of BALB/C. mice, three days before sacrificing the animals. The peritoneal cells were then collected by washing the peritoneal cavity with a solution of RPMI 1640 containing 10% of FCS, and resuspended in the same solution at a concetration of 10^6 cells/ml in 96-well plates. The incubation was performed for 96 hours at 37° C. in the presence of the compounds in question. At the end of the treatment the supernatants were collected and used for dosing cytokine by means of a suitable ELISA commerical kit (Genzyme, Boston, Mass., USA).

[5] = test system: murine peritoneal cells; test: Stimulation of the nitric oxide by murine peritoneal cells (chemiluminescence); assay type: cell-based, BALB/C mice; conditions: with lipopolysaccharide 30 μg/ml, 96 hours; for nitric oxide, Stimulation index: with respect to control; for nitric oxide content: control 20
Procedure: Stimulation of the nitric oxide by murine peritoneal cells
The peritoneal cells were obtained as described in the previous test, and incubated for 96 hours at 37° C. in the presence of the compounds in question and of lipopolysaccharide at a concentration of 30 μg/ml. At the end of the treatment the supernatants were collected and the nitric oxide content was determined by the chemiluminescence test described by Palmer R. M. J. et al, Nature, 327, 524, 1987.

Compound	3H-thymidine incorporation by living parasites, cpm (counts per minute) ([1]; 0.1 μg/ml)	% reduciton of infection ([1]; 0.1 μg/ml)	3H-thymidine incorporation by living parasites, cpm (counts per minute) ([1]; 1.0 μg/ml)	% reduciton of infection ([1]; 1.0 μg/ml) [%]	3H-thymidine incorporation by living parasites, cpm (counts per minute) ([1]; 10.0 μg/ml)	% reduciton of infection ([1]; 10.0 μg/ml) [%]	IFN-.tau. production, Stimulation index ([3]; 0.1 μg/ml)	IFN-.tau. production, U/ml ([3]; 0.1 μg/ml) [U/ml]	IFN-.tau. production, Stimulation index ([3]; 1.0 μg/ml)	IFN-.tau. production, U/ml ([3]; 1.0 μg/ml) [U/ml]	IFN-.tau. production, Stimulation index ([3]; 10.0 μg/ml)	IFN-.tau. production, U/ml ([3]; 10.0 μg/ml) [U/ml]	IL-1 production, Stimulation index ([4]; 0.01 μg/ml)	IL-1 production, U/ml ([4]; 0.01 μg/ml) [U/ml]	IL-1 production, Stimulation index ([4]; 0.1 μg/ml)	IL-1 production, U/ml ([4]; 0.1 μg/ml) [U/ml]	IL-1 production, Stimulation index ([4]; 1.0 μg/ml)	IL-1 production, U/ml ([4]; 1.0 μg/ml) [U/ml]	IL-1 production, Stimulation index ([4]; 10.0 μg/ml)	IL-1 production, U/ml ([4]; 10.0 μg/ml) [U/ml]	also measured
N=C(N)NCCC[C@H](NC(=O)[C@@H]1CCCN1C(=O)C(CCCCN)C(=O)NCN)C(=O)O (single isomer, unassigned) [Ex.1]	5,096 cpm	over 70%	3,783 cpm	79	4,292 cpm	77	1.1	33	1.9	60	1.6	49	0.4	6	0.1	2	0.1	2	0.1	2	% reduciton of infection ([1]; 0.1 μg/ml, listed as Es. 1): 72%; reduction of the infection degree, result in words ([1]; 0.1 to 10.0 μg/ml): the utmost effective; survival percentage ([2]; 0.62 ug/mouse): about 65%; survival percentage ([2]; 6.2 ug/mouse): about 65%; IFN-.tau. production, Stimulation index ([3]; 1.0 μg/ml, listed as example 1): doubled; stimulation of IFN-.tau. production, result in words ([3]; 0.1 to 10.0 μg/ml): the most powerful one of the present class; nitric oxide, Stimulation index ([5]; 0.01 μg/ml): 2.2; nitric oxide content ([5]; 0.01 μg/ml): 43 nmol/mL; nitric oxide, Stimulation index ([5]; 0.1 μg/ml): 3.0; nitric oxide content ([5]; 0.1 μg/ml): 59 nmol/mL; nitric oxide, Stimulation index ([5]; 1.0 μg/ml): 3.9; nitric oxide content ([5]; 1.0 μg/ml): 77 nmol/mL; nitric oxide, Stimulation index ([5]; 10.0 μg/ml): 2.9; nitric oxide content ([5]; 10.0 μg/ml): 57 nmol/mL
N=C(N)NCCC[C@H](NC(=O)[C@@H]1CCCN1C(=O)C(CCCCN)C(=O)NCN)C(=O)O (single isomer, unassigned) [isomer B]	–	–	–	–	–	–	–	–	–	–	–	–	–	–	–	–	–	–	–	–	survival percentage ([2]; 6.25 ug/mouse): about 80%; survival percentage ([2]; 62.5 ug/mouse): 75%
H-gThr-(R,S)mLys-Pro-Gln-OH.AcOH [Ex.3]	18,826 cpm	-3%	8,377 cpm	54	7,842 cpm	57	1.5	60	1.5	60	1.7	68	10.0	150	10.7	160	10.3	155	9.3	140	nitric oxide, Stimulation index ([5]; 0.01 μg/ml): 2.5; nitric oxide content ([5]; 0.01 μg/ml): 50 nmol/mL; nitric oxide, Stimulation index ([5]; 0.1 μg/ml): 3.0; nitric oxide content ([5]; 0.1 μg/ml): 60 nmol/mL; nitric oxide, Stimulation index ([5]; 1.0 μg/ml): 3.3; nitric oxide content ([5]; 1.0 μg/ml): 66 nmol/mL; nitric oxide, Stimulation index ([5]; 10.0 μg/ml): 4.4; nitric oxide content ([5]; 10.0 μg/ml): 88 nmol/mL
H-gThr-R,S)mLys-Pro-LeU-OH.AcOH [Ex.2]	17,568 cpm	4%	11,991 cpm	34	10,582 cpm	42	1.8	57	1.7	52	1.9	60	6.0	90	4.0	60	3.1	47	3.3	50	nitric oxide, Stimulation index ([5]; 0.01 μg/ml): 4.3; nitric oxide content ([5]; 0.01 μg/ml): 85 nmol/mL; nitric oxide, Stimulation index ([5]; 0.1 μg/ml): 3.1; nitric oxide content ([5]; 0.1 μg/ml): 61 nmol/mL; nitric oxide, Stimulation index ([5]; 1.0 μg/ml): 3.3; nitric oxide content ([5]; 1.0 μg/ml): 66 nmol/mL; nitric oxide, Stimulation index ([5]; 10.0 μg/ml): 4.0; nitric oxide content ([5]; 10.0 μg/ml): 79 nmol/mL
